Test results reported in patent US5624917A, “Method of inhibiting squalene synthetase” (Takeda Chemical Industries, Ltd., priority 1991, dated 1997).

Legend:
[1] = test system: cholesterol biosynthesis; experiment: Cholesterol biosynthesis inhibitory activity: cholesterol synthesis from [2-14C] acetic acid in rat liver slices; format: cell-based; settings: for effect on cholesterol synthesis from [2-14C] acetic acid (in words): 20 μM; for activity at 20 µM: 37° C., 2 hours, No addition = 100 ± 0
Protocol: (§1) Squalene synthetase inhibitory activity and cholesterol biosynthesis inhibitory activity of the compounds used in the present invention were determined by the following method.
Determination of cholesterol biosynthesis Inhibitory activity
The liver was excised from Sprague-Dawley rat (6 weeks old, male) under full feeding and sliced into 500 μm in thickness. The slices of liver (150-200 mg) and KHB buffer solution (1 ml) containing 0.5 μCi [2-^14 C] acetic acid and various concentrations of test compounds were incubated at 37° C. for 2 hours. Cholesterol was extracted from the reaction mixture. The amount of cholesterol synthesized from the labeled acetic acid was measured, and the inhibitory ratio was calculated in comparison with the synthesized amount in the case of no addition of the test compounds.
The effect of Compound No. 22 (Example 39 described in Japanese Patent Application No. 3-151484) (added in 20 μM), 67, 74 and 75 on cholesterol synthesis from [2-^14 C] acetic acid in assay using liver slices of rats was observed.

[2] = target: T1, squalene synthetase (Rattus norvegicus, UniProt Q02769); experiment: Squalene synthetase inhibitory activity, rat enzyme (rat liver microsome fraction); format: biochemical; settings: 5 μM [1-3H]farnesylpyrophosphoric acid, pH 7.4, 37° C., 45 minutes, read-out: IC50, squalene synthetase inhibitory activity, Rat enzyme
T1 construct: from tissue; host or cells: liver of male SD rats (microsome fraction)
T1 sequence (Q02769 1-416): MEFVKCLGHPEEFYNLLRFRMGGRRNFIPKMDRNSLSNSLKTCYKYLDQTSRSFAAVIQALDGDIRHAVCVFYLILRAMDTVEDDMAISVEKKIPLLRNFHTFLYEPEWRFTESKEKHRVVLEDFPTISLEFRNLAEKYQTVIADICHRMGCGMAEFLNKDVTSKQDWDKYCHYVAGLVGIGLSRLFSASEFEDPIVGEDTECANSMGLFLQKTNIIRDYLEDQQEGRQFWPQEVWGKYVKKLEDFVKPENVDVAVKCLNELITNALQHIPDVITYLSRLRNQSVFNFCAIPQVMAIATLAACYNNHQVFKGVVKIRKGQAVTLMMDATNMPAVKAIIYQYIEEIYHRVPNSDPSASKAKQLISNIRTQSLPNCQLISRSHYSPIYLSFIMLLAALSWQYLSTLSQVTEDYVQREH
Protocol: as §1
(§2) Determination of squalene synthetase inhibitory activity
(§3) The squalene synthetase inhibitory activity was determined as follows by using the enzyme solutions shown in Experiments 1 and 2 below.
(§4) Each enzyme solution (Protein: 0.8 μg) prepared in Experiments 1 and 2 was added to a solution (total amount: 50 μl) containing 5 μM[1-^3 H]farnesylpyrophosphoric acid (Specific activity 25 μCi/μmole), 1 mM NADPH, 5 mM MgCl2, 6 mM glutathione, 100 mM potassium phosphate buffer (pH 7.4) and a drug to be tested (which was added as a solution thereof in water or DMSO). The mixture was allowed to react at 37° C. for 45 minutes. A mixture (150 μl) of chloroform and methanol (1:2) was added to stop the reaction. Then, chloroform (50 μl) and 3N sodium hydroxide solution (50 μl) were added. The chloroform layer (under layer, 50 μl) containing the reaction products in which the major component was squalene was mixed with toluene liquid scintillator (3 ml). The radioactivity was measured with a liquid scintillation counter.
(§5) The squalene synthetase inhibitory activity is indicated by the concentration (IC50, molarity(M)) which inhibits the radioactivity incorporated into the chloroform layer by 50%.
Preparation of rat enzyme
SD-Male rats (6 weeks old) were bled to death followed by removal of liver. The liver (ca. 10 g) was washed with ice-cooled physiological saline, homogenized in an ice-cooled buffer solution (15 ml) [100 mM potassium phosphate (pH 7.4), 15 mM nicotinamide, 2 mM MgCl2 ] and centrifuged at 10,000×g for 20 minutes (4° C.). The resulting supernatant was further centrifuged at 105,000×g for 90 minutes (4° C.). Then, the deposit was suspended in an ice-cooled 100 mM potassium phosphate buffer solution (pH 7.4) and centrifuged at 105,000×g for 90 minutes (4° C.) again. The deposit (microsome fraction) thus obtained was suspended in an ice-cooled 100 mM potassium phosphate buffer solution (pH 7.4) so that the protein concentration became about 40 mg/ml (measured with BCA Protein Assay Kit (Pias)), and the suspension was used as the enzyme solution.

[3] = target: T2, squalene synthetase (Homo sapiens, UniProt P37268); experiment: Squalene synthetase inhibitory activity, human enzyme (HepG2 microsome fraction); format: biochemical; settings: human hepatoma HepG2 microsome fraction; 5 μM [1-3H]farnesylpyrophosphoric acid, pH 7.4, 37° C., 45 minutes; read-out: IC50, squalene synthetase inhibitory activity, Human enzyme
T2 construct: From the resulting sonicate, microsome fraction was obtained according to the same manner as that described in Experiment 1; endogenous in cells; host or cells: HepG2 human hepatoma cells (microsome fraction)
T2 sequence (P37268 1-417): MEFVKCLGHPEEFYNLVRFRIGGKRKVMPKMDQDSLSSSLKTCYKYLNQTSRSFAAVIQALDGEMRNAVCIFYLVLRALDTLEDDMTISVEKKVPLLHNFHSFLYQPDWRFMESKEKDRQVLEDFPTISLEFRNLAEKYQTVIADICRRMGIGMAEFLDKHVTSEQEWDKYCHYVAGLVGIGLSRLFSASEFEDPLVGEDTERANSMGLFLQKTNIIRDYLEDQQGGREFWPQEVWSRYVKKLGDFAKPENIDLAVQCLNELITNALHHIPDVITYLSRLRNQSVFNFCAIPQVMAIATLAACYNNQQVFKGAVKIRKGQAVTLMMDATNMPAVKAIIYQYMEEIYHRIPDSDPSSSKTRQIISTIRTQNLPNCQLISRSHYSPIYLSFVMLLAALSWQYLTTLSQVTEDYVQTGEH
Protocol: as §1, §2, §3, §4, §5
Preparation of human enzyme
Cultivation was carried out on Dulbecco modified Eagle medium containing 10% bovine fetal serum in the presence of 5% CO2 at 37° C. The human hepatoma cells HepG2 (ca. 1×10^9 cells) were suspended in an ice-cooled buffer solution (10 ml) [100 mM potassium phosphate (pH 7.4), 30 mM nicotinamide, 2.5 mM MgCl2 ], and the cells were crushed by ultrasonication (30 seconds, twice). From the resulting sonicate, microsome fraction was obtained according to the same manner as that described in Experiment 1. This microsome fraction was suspended in an ice-cooled 100 mM potassium phosphate buffer solution (pH 7.4) so that the protein concentration became about 4 mg/ml, and this suspension was used as the enzyme liquid.

Compound	effect on cholesterol synthesis from [2-14C] acetic acid (in words) [1]	activity at 20 µM [1]	IC50 [2]	IC50 [3]
O=P(O)(O)C(NCCCCCCSc1ccccc1)P(=O)(O)O [compound 22]	significant inhibition of cholesterol biosynthesis	52.9 ± 10%	–	–
COc1ccc(CSCCCCCCNC(P(=O)(O)O)P(=O)(O)O)cc1 [compound 67]	significant inhibition of cholesterol biosynthesis	43.4 ± 5%	8.7 nM	9.3 nM
O=P(O)(O)C(NCCCCCCSc1nccs1)P(=O)(O)O [compound 74]	significant inhibition of cholesterol biosynthesis	35.8 ± 0.8%	–	–
Cc1nnc(SCCCCCCNC(P(=O)(O)O)P(=O)(O)O)s1 [compound 75]	significant inhibition of cholesterol biosynthesis	50 ± 7.9%	–	–
CC(C)=CCC/C(C)=C/CC/C(C)=C/CC(P(=O)(O)O)P(=O)(O)O [compound 106, trisodium (E,E)-farnesylmethylenebisphosphonate]	–	–	62 nM	110 nM
(E,E)-farnesylaminomethylenebisphosphonic acid diethyl ester disodium salt [Compound No. 112]	–	–	3300 nM	8200 nM
